# Assay results reported in US9334523B2, “Substrates and methods for staining live stem cells” (LIFE TECHNOLOGIES CORPORATION, priority 2011, dated 2016).
# Entries after “also recorded” stand apart in the source; their conditions may differ. Where two headings read alike, the source gives them in different places.
# Experiments:
# [1] = tested on: differentiating osteoblasts versus AdSCs; assay: Staining of adipose derived mesenchymal stem cells and derived osteoblasts; format: cell-based; details: FIG. 8
# Excerpt: Alkaline phosphatase is also expressed at high levels in differentiating osteoblasts and mature osteocytes.
# H9 ESCs = assay: Live staining of H9 ESCs cultured on MEF feeders with alkaline phosphatase substrates; format: cell-based, human; details: for concentration range of fluorescence: FIG. 1; for concentration at which robust staining of ESC colonies was achieved: FIG. 2
# Method: (§1) Here, two test alkaline phosphate substrates, Fluorescein diphosphate-AM ester (FDP-AM) and DDAOP-AM ester were tested for live staining on pluripotent stem cells like H9 ESCs cultured on MEF (mouse embryonic fibroblast) feeder cells. H9 ESCs and other stem cells expressed high alkaline phosphatase. Negative control cells were MEFs and human dermal fibroblasts which express far lower levels of alkaline phosphatase.
# (§2) A 10 mM substrate master stock solution (1000×) of fluorescein diphosphate-AM ester (FDP-AM) or DDAOP-AM was prepared (for FDP-AM for e.g., by adding 512.5 μL of tissue culture grade DMSO to 4 mg of the compound (MW: 780.52)).
# (§3) Then, 100 μL of 10 mM FDP-AM or DDAOP-AM solution was diluted into 900 μL of DMEM to make 1 mM working stock; or 10 μM working stock was prepared by diluting 10 μl to 10 ml with 100 mM Tris-HCl pH 8.2 or DMEM basal media; or 1 μM working stock was prepared by diluting 10 μL of 1 mM working stock in 10 ml of DMEM, which was used.
# (§4) The AP (alkaline phosphatase) live compound with concentrations ranging: >1 μM, 5 μM, 10 μM, 50 μM, 100 μM, and 200 μM, was made by adding 1, 5, 10, 50, 100 and 200 μL of 1 mM FDP-AM or DDAOP-AM working stock. Similarly, the AP live compounds with concentrations ranging: >20 nM, 50 nM, 100 nM, 250 nM, 500 nM, and 800 nM, was made by adding 2, 5, […], 25, 50 and 80 μL of 1 μM FDP-AM working stock. The first dilution was added to an empty plate (no seeded cells) containing DMEM. The final concentration of the substrates, on the cells, were as follows: 50-200 nM for FDP-AM, and 50-200 μM for DDAOP-AM.
# (§5) Incubation times were then determined, beginning with 90 seconds. Where no FITC expression was detected, expression was continued for up to 30 minutes. Levamisole was added to the wash buffer to quench the reaction. This step is whoever optional and not necessary. The samples were rinsed with DMEM and visualized.
# [2] = tested on: MEF (mouse embryonic fibroblast) feeder cells; assay: Background staining in negative control cells (MEFs, fibroblasts); format: cell-based
# Method: as §1, §2, §3, §4, §5
# mouse ESCs = assay: Live staining of mouse ESCs on MEF feeders; format: cell-based; details: 200 nM, 30 min
# Excerpt: Alkaline phosphatase is not specific just for human ESCs but also for murine ESCs. […] The fluorescent signal is robust and visible at lower 5× magnification [FIG. 7].
SMILES,specificity of staining of osteoblasts versus parent AdSC/MSC [1],morphology of stained ESCs (H9 ESCs),concentration range of fluorescence (H9 ESCs),concentration at which robust staining of ESC colonies was achieved (H9 ESCs),background staining in negative control MEFs [2],background staining in negative control MEFs ([2]; listed as DDAO-AM),staining of ESC colonies (H9 ESCs),time for substrate to diffuse out of the ESC (H9 ESCs),viability of cells after the substrate diffuses out (H9 ESCs),"proliferation of stained cells after removal of the substrate (H9 ESCs; 100-200 nM, 30 minutes)",cell-specific marker expression of stained cells (H9 ESCs; after staining and removal of the substrate),"re-staining with a second exposure the following day (H9 ESCs; after washing, culturing overnight, 30 min exposure)",removal of fluorescent stain from stained cells (H9 ESCs; media with substrate replaced with fresh ESC culture media),background in MEF feeder cells of mESC culture (mouse ESCs),staining of mESC colonies (mouse ESCs),effect on viability or morphology of stained cells (H9 ESCs)
"CC(=O)OCOP(=O)(OCOC(C)=O)Oc1ccc2c(c1)C(C)(C)C1=C(Cl)C(=O)C(Cl)=CC1=N2 [DDAOP-AM, DDAO phosphate-AM ester]",failed to show specific staining; also recorded: does not show specific staining,altered morphology,micomolar range,200 µM,high background expression,higher background in negative control cells,–,–,–,–,–,–,–,–,–,–
"CC(=O)OCOP(=O)(OCOC(C)=O)Oc1ccc2c(c1)Oc1cc(OP(=O)(OCOC(C)=O)OCOC(C)=O)ccc1C21OC(=O)c2ccccc21 [FDP-AM, Fluorescein diphosphate-AM ester]",specific staining of differentiating osteoblasts with minimal background in its parental undifferentiated MSC; also recorded: specific staining for the differentiated phenotype (osteoblast) but not in AdSCs,–,nanomolecular range,0.2 µM,minimal background,–,successful staining; also recorded: robust staining,within two hours,viable overnight,continue to proliferate even after removal of the substrate,retain their cell-specific marker expression; also recorded: retained their marker expression,successfully re-stained,completely removed,minimal background staining; also recorded: little or no background,specially stains mESC; also recorded: robust staining,–
O=C1OC2(c3ccc(O)cc3Oc3cc(O)ccc32)c2ccccc21 [fluorescein],–,–,–,–,–,–,–,–,–,–,–,–,–,–,–,does not affect the viability or morphology
